We go through seven cell lines from the supplement of paper PMC10307832.

What all share (test): relative viability (nuclei count vs DMSO), 5 days (fraction); higher = more cells survive
Compound in experiment [1]: CC1=C(C(=NN1)C)CC2=C(C3=C(S2)N(C(=O)N(C3=O)C)CC(C)C)C(=O)N4C[C@@H](CO4)O + COc1cc2c(Oc3ccc(NC(=O)C4(C(=O)Nc5ccc(F)cc5)CC4)cc3F)ccnc2cc1OCCCN1CCOCC1 [Foretinib] (partner 0.25 µM)
Summed up:
(§1)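 For relative viability, nuclei counts in treated wells were divided by those in vehicle wells. Lung cancer cell lines had been pin-tool dosed in 1536-well plates the day after seeding and cultured for 5 days, then fixed and stained in one step (final 0.05% Triton X-100, 1% formaldehyde, 1 ug/ml Hoechst) and imaged at 4×. Doses were one drug alone or a fixed anchor-drug dose plus five library-drug doses (not always all listed) in √10 steps, and values are duplicate-plate medians.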

Compound in experiment [2]: CC1=C(C(=NN1)C)CC2=C(C3=C(S2)N(C(=O)N(C3=O)C)CC(C)C)C(=O)N4C[C@@H](CO4)O + CS(=O)(=O)CCNCc1ccc(-c2ccc3ncnc(Nc4ccc(OCc5cccc(F)c5)c(Cl)c4)c3c2)o1 [Lapatinib] (partner 2 µM)
The essentials: as §1

Compound in the experiment “IDH-C35 + OSI-027”: Cc1ccccc1C(C(=O)NC1CCCCC1)N(C(=O)Cn1ccnc1C)c1cccc(F)c1 [IDH-C35] + COc1cccc2cc(-c3nc([C@H]4CC[C@H](C(=O)O)CC4)n4ncnc(N)c34)[nH]c12 [OSI-027] (partner 0.5 µM)
Summed up: as §1

Compound in the experiment “IDH-C35 + AZD7762”: Cc1ccccc1C(C(=O)NC1CCCCC1)N(C(=O)Cn1ccnc1C)c1cccc(F)c1 [IDH-C35] + NC(=O)Nc1cc(-c2cccc(F)c2)sc1C(=O)N[C@H]1CCCNC1 [AZD7762] (partner 0.2 µM)
The essentials: as §1

Turning to HCC-827, the relative viability came to 1.02 in experiment [1] (first compound 0.0025 µM); 1.09 in experiment [1] (first compound 0.007906 µM); 1.01 in experiment [1] (first compound 0.025 µM); 1.02 in experiment [1] (first compound 0.07906 µM); 1.02 in experiment [1] (first compound 0.25 µM); 0.189 in experiment [2] (first compound 0.0025 µM). In addition, the relative viability in experiment [2] (first compound 0.007906 µM) stood at 0.171; in experiment [2] (first compound 0.025 µM), 0.192; in experiment [2] (first compound 0.07906 µM) it was 0.156; in experiment [2] (first compound 0.25 µM), 0.167; with IDH-C35 + OSI-027 (first compound 0.08 µM) it was 0.78; in the experiment with IDH-C35 + OSI-027 (first compound 0.253 µM), 0.662. For the same cell line, the relative viability in the experiment with IDH-C35 + OSI-027 (first compound 0.8 µM) stood at 0.694; in the experiment with IDH-C35 + OSI-027 (first compound 2.53 µM), 0.71; with IDH-C35 + OSI-027 (first compound 8 µM) it was 0.771; in the experiment with IDH-C35 + AZD7762 (first compound 0.08 µM), 0.218; in the experiment with IDH-C35 + AZD7762 (first compound 0.253 µM), 0.266; in the experiment with IDH-C35 + AZD7762 (first compound 0.8 µM), 0.221. The values for the relative viability with IDH-C35 + AZD7762 (first compound 2.53 µM) and with IDH-C35 + AZD7762 (first compound 8 µM) were 0.206 and 0.228, respectively.
For the cell line HOP-62, the relative viability in experiment [1] (first compound 0.0025 µM) is 1.2; in experiment [1] (first compound 0.007906 µM) it was 1.09; in experiment [1] (first compound 0.025 µM) it was 1.04; in experiment [1] (first compound 0.07906 µM), 1.06; in experiment [1] (first compound 0.25 µM) it was 1.09; in experiment [2] (first compound 0.0025 µM), 1.05. In addition, the relative viability was 0.946 in experiment [2] (first compound 0.007906 µM); 1.05 in experiment [2] (first compound 0.025 µM); 0.952 in experiment [2] (first compound 0.07906 µM); 1.08 in experiment [2] (first compound 0.25 µM); 0.895 in the experiment with IDH-C35 + OSI-027 (first compound 0.08 µM); 0.801 in the experiment with IDH-C35 + OSI-027 (first compound 0.253 µM). For the same cell line, the relative viability in the experiment with IDH-C35 + OSI-027 (first compound 0.8 µM) is 0.76; with IDH-C35 + OSI-027 (first compound 2.53 µM), 0.79; in the experiment with IDH-C35 + OSI-027 (first compound 8 µM), 0.78; in the experiment with IDH-C35 + AZD7762 (first compound 0.08 µM), 0.624; with IDH-C35 + AZD7762 (first compound 0.253 µM), 0.553; with IDH-C35 + AZD7762 (first compound 0.8 µM) it was 0.739. In addition, the relative viability in the experiment with IDH-C35 + AZD7762 (first compound 2.53 µM) came out at 0.519; with IDH-C35 + AZD7762 (first compound 8 µM), 0.532.
On to LC-2-ad, for which the relative viability came out at 0.897 in experiment [1] (first compound 0.0025 µM); 0.836 in experiment [1] (first compound 0.007906 µM); 0.911 in experiment [1] (first compound 0.025 µM); 1.06 in experiment [1] (first compound 0.07906 µM); 1.08 in experiment [1] (first compound 0.25 µM); 1.01 in experiment [2] (first compound 0.0025 µM). For the same cell line, the relative viability in experiment [2] (first compound 0.007906 µM) turned out to be 0.893; in experiment [2] (first compound 0.025 µM), 0.993; in experiment [2] (first compound 0.07906 µM), 0.912; in experiment [2] (first compound 0.25 µM) it was 1.14; with IDH-C35 + OSI-027 (first compound 0.08 µM) it was 0.9; with IDH-C35 + OSI-027 (first compound 0.253 µM), 0.908. Also, the relative viability with IDH-C35 + OSI-027 (first compound 0.8 µM) stood at 0.806; in the experiment with IDH-C35 + OSI-027 (first compound 8 µM) it was 0.899; in the experiment with IDH-C35 + AZD7762 (first compound 0.08 µM), 0.878; with IDH-C35 + AZD7762 (first compound 0.253 µM), 0.846; with IDH-C35 + AZD7762 (first compound 0.8 µM), 0.793; with IDH-C35 + AZD7762 (first compound 2.53 µM), 0.837. Further, the relative viability with IDH-C35 + AZD7762 (first compound 8 µM) was determined as 0.804.
In the case of LCLC-97TM1, the relative viability in experiment [1] (first compound 0.0025 µM) worked out at 0.97; in experiment [1] (first compound 0.007906 µM), 1.01; in experiment [1] (first compound 0.025 µM), 0.935; in experiment [1] (first compound 0.07906 µM), 0.775; in experiment [1] (first compound 0.25 µM), 0.934; in experiment [2] (first compound 0.0025 µM), 0.721. In addition, the relative viability in experiment [2] (first compound 0.007906 µM) was 0.776; in experiment [2] (first compound 0.025 µM), 0.896; in experiment [2] (first compound 0.07906 µM), 0.972; in experiment [2] (first compound 0.25 µM), 1.13; with IDH-C35 + OSI-027 (first compound 0.08 µM), 0.557; in the experiment with IDH-C35 + OSI-027 (first compound 0.253 µM) it was 0.614. Also, the relative viability with IDH-C35 + OSI-027 (first compound 0.8 µM) amounted to 0.508; in the experiment with IDH-C35 + OSI-027 (first compound 2.53 µM) it was 0.447; in the experiment with IDH-C35 + OSI-027 (first compound 8 µM), 0.421; with IDH-C35 + AZD7762 (first compound 0.08 µM) it was 0.265; in the experiment with IDH-C35 + AZD7762 (first compound 0.253 µM), 0.384; with IDH-C35 + AZD7762 (first compound 0.8 µM), 0.143. The relative viability with IDH-C35 + AZD7762 (first compound 8 µM) was found to be 0.192.
For the cell line LK-2, the relative viability in experiment [1] (first compound 0.0025 µM) was determined as 1.04; in experiment [1] (first compound 0.007906 µM) it was 1.12; in experiment [1] (first compound 0.025 µM), 0.981; in experiment [1] (first compound 0.07906 µM), 0.928; in experiment [1] (first compound 0.25 µM) it was 1.16; in experiment [2] (first compound 0.0025 µM) it was 0.987. Also, the relative viability in experiment [2] (first compound 0.007906 µM) came out at 0.933; in experiment [2] (first compound 0.025 µM) it was 0.787; in experiment [2] (first compound 0.07906 µM), 0.903; in experiment [2] (first compound 0.25 µM), 0.851; with IDH-C35 + OSI-027 (first compound 0.08 µM) it was 0.213; with IDH-C35 + OSI-027 (first compound 0.253 µM) it was 0.226. Moreover, the relative viability with IDH-C35 + OSI-027 (first compound 0.8 µM) was 0.188; with IDH-C35 + OSI-027 (first compound 2.53 µM) it was 0.24; with IDH-C35 + OSI-027 (first compound 8 µM) it was 0.236; with IDH-C35 + AZD7762 (first compound 0.08 µM), 0.422; with IDH-C35 + AZD7762 (first compound 0.253 µM), 0.542; in the experiment with IDH-C35 + AZD7762 (first compound 0.8 µM) it was 0.37. Also, the relative viability amounted to 0.444 with IDH-C35 + AZD7762 (first compound 2.53 µM) and 0.336 in the experiment with IDH-C35 + AZD7762 (first compound 8 µM).
On to LOU-NH91, for which the relative viability in experiment [1] (first compound 0.0025 µM) was 0.931; in experiment [1] (first compound 0.007906 µM), 0.877; in experiment [1] (first compound 0.025 µM) it was 0.988; in experiment [1] (first compound 0.07906 µM) it was 1.02; in experiment [1] (first compound 0.25 µM), 0.972; in experiment [2] (first compound 0.0025 µM), 0.74. In addition, the relative viability was determined as 0.755 in experiment [2] (first compound 0.007906 µM); 0.815 in experiment [2] (first compound 0.025 µM); 0.781 in experiment [2] (first compound 0.07906 µM); 0.813 in experiment [2] (first compound 0.25 µM); 0.742 in the experiment with IDH-C35 + OSI-027 (first compound 0.08 µM); 0.76 with IDH-C35 + OSI-027 (first compound 0.253 µM). The relative viability amounted to 0.743 with IDH-C35 + OSI-027 (first compound 0.8 µM); 0.716 with IDH-C35 + OSI-027 (first compound 2.53 µM); 0.732 with IDH-C35 + OSI-027 (first compound 8 µM); 0.805 in the experiment with IDH-C35 + AZD7762 (first compound 0.08 µM); 0.73 with IDH-C35 + AZD7762 (first compound 0.253 µM); 0.753 with IDH-C35 + AZD7762 (first compound 0.8 µM). Besides, the figures for the relative viability with IDH-C35 + AZD7762 (first compound 2.53 µM) and with IDH-C35 + AZD7762 (first compound 8 µM) were 0.765 and 0.815, respectively.
Turning to LU99A, the relative viability in experiment [1] (first compound 0.0025 µM) amounted to 0.901; in experiment [1] (first compound 0.007906 µM) it was 0.943; in experiment [1] (first compound 0.025 µM) it was 0.766; in experiment [1] (first compound 0.07906 µM), 0.768; in experiment [1] (first compound 0.25 µM), 0.747; in experiment [2] (first compound 0.0025 µM) it was 1.22. Further, the relative viability worked out at 0.982 in experiment [2] (first compound 0.007906 µM); 0.9 in experiment [2] (first compound 0.025 µM); 0.975 in experiment [2] (first compound 0.07906 µM); 1.11 in experiment [2] (first compound 0.25 µM); 0.335 with IDH-C35 + OSI-027 (first compound 0.08 µM); 0.329 with IDH-C35 + OSI-027 (first compound 0.253 µM). Further, the relative viability is 0.276 with IDH-C35 + OSI-027 (first compound 0.8 µM); 0.293 in the experiment with IDH-C35 + OSI-027 (first compound 2.53 µM); 0.286 with IDH-C35 + OSI-027 (first compound 8 µM); 0.326 in the experiment with IDH-C35 + AZD7762 (first compound 0.08 µM); 0.398 with IDH-C35 + AZD7762 (first compound 0.253 µM); 0.396 with IDH-C35 + AZD7762 (first compound 0.8 µM). Moreover, the relative viability in the experiment with IDH-C35 + AZD7762 (first compound 2.53 µM) turned out to be 0.335; in the experiment with IDH-C35 + AZD7762 (first compound 8 µM), 0.36.
